Data from US8883841B2, “Oncogenic ras-specific cytotoxic compound and methods of use thereof” (The Board of Regents of the University of Texas System, priority 2005, dated 2014).

How the values were obtained:
[1] = test system: Sw620; test: Cell viability, Sw620 colon cancer cells; format: cell-based, human; conditions: Sw620, Colon
[2] = test system: Hey; test: Cell viability, Hey ovary cancer cells; format: cell-based
[3] = test system: Ovca429; test: Cell viability, Ovca429 ovary cancer cells; format: cell-based
[4] = test system: H460 cells

SMILES: O=Cc1cn(Cc2ccc(Cl)cc2)c2ccccc12 [Oncrasin K001, 1H-Indole-3-carboxaldehyde, 1-[(4-chlorophenyl)methyl]-(9CI)]
- IC50 (−LogM) [1]: 5.4 −LogM
- IC50 (−LogM) [2]: 4.6 −LogM
- IC50 (−LogM) [3]: 4.5 −LogM
- IC50 (−LogM) ([4]; H460, Lung): 6.6 −LogM
- concentration that effectively kills H460 cells ([4]; K-ras mutant lung cancer cells): 1 µM
- IC50 in H460 cells ([4]; Table 1, value is the negative log10 of mol/L): 6.6
- effect on H460 cells ([4]; lung cancer cell line): highly effective
- IC50 ([4]; read-out: IC50, H460 cells, K-Ras Q61H): 250 nM
